# From publication PMC6199744, “Development of Chemical Proteomics for the Folateome and Analysis of the Kinetoplastid Folateome” (ACS Infectious Diseases, 2018)
# Values joined by “and” are separate entries in the source; they are usually repeats but may differ in a detail not shown here. Identical values can stand only once. Like-named read-outs stand apart in the source and are kept apart here.
# System: L. major lysate proteins
# Experiment: Multitargeted bead mixture chemoproteomics, single concentration competition, proteome-wide
# Assay type: binding
# Conditions: for fold change / fold change relative to vehicle control: vehicle control = 1; for fold change relative to vehicle control: competition with free ligand
compound,measurement,setting,value
CCCCCCOc1cccc(Cc2cnc(N)nc2N)c1 [compound 2],fold change vs vehicle control,,1.17 and 1.18 and 1.07 and 1.04
same,fold change,LINJ.05.0500 ATPASE ALPHA SUBUNIT,1.11
same,fold change,LINJ.36.4570 PROTEASOME REGULATORY ATPASE SUBUNIT,0.65
same,fold change,"LMJF.10.0510 GLYCEROL-3-PHOSPHATE DEH[…] ], GLYCOSOMAL",1.02
same,fold change,LMJF.16.1610 PROHIBITIN,1.14
same,fold change,"LMJF.18.1370 HEAT SHOCK PROTEIN, PUTATIVE",1.03
same,fold change,"LMJF.19.0300 RNA BINDING PROTEIN, PUTATIVE",0.93
same,fold change,"LMJF.21.0760 […]-ATP-ASE SUBUNIT 5, PUTATIVE",0.91
same,fold change,"LMJF.22.0410 HY[…], CONSERVED",0.85
same,fold change,"LMJF.25.1770 ENOYL-COA REDUCTASE, PUTATIVE",1.1
same,fold change,LMJF.26.0300 AMINOPEPTIDASE-LIKE PROTEIN,0.85
same,fold change,"LMJF.26.2560 HY[…], CONSERVED",1.08
same,fold change,"LMJF.27.1810 GLYCOSOMAL PHOSPHOENOLPYRUVATE CARBOXYKINASE, PUTATIVE",1.17
same,fold change,"LMJF.28.0490 PROPIONYL-COA CARBOXYLASE BETA CHAIN, PUTATIVE",0.63
same,fold change,"LMJF.29.0940 HY[…], CONSERVED",1.21
same,fold change,"LMJF.29.1310 CARNITINE/CHOLINE ACETYLTRANSFERASE, PUTATIVE",1.04
same,fold change,"LMJF.29.1470 HY[…], CONSERVED",1.11
same,fold change,"LMJF.29.2440 HYPOTHETICAL PROTEIN, CONSERVED",1
same,fold change,LMJF.30.2350 SPHINGOSINE 1-PHOSPHATE LYASE,1.12
same,fold change,"LMJF.30.2970 GLYCERALDEHYDE 3-PHOSPHATE DEHYDROGENASE, GLYCOSOMAL",1.11
same,fold change,"LMJF.30.3390 CAS/CSE/IMPORTIN DOMAIN PROTEIN, PUTATIVE",0.9
same,fold change,LMJF.31.2650 ACETOIN DEHYDROGENASE E3 COMPONENT-LIKE PROTEIN,1.02
same,fold change,"LMJF.31.2970 ACETYL-COA CARBOXYLASE, PUTATIVE",0.91
same,fold change,"LMJF.33.1030 HYPOTHETICAL PROTEIN, CONSERVED",0.95
same,fold change,LMJF.35.5040 polyadenylate-binding protein 1,1.22
same,fold change,"LMJF.35.5250 ALPHA-1,2-MANNOSYLTRANSFERASE, PUTATIVE",0.99
same,fold change,"LMJF.36.5100 HY[…], CONSERVED",1.03
same,fold change,"LMJF.[…] RIBOSOMAL PROTEIN S7, PUTATIVE",1.35
same,fold change vs vehicle control,"protein LINJ.03.0940 HY[…], CONSERVED",1.19
same,fold change vs vehicle control,"protein LINJ.09.0030 HYPOTHETICAL PROTEIN, CONSERVED",0.91
same,fold change relative to vehicle control,"protein LINJ.11.0780 40S RIBOSOMAL PROTEIN S21, PUTATIVE",1.25
same,fold change,"protein LINJ.13.0990 […] SUBUNIT 2, PUTATIVE",1.04
same,fold change vs vehicle control,protein LINJ.13.1460 ALPHA TUBULIN,1.06
same,fold change,"protein LINJ.15.0090 HEAT SHOCK PROTEIN HSLVU, ATPASE SUBUNIT HSLU, PUTATIVE",1.01
same,fold change relative to vehicle control,"protein LINJ.16.1380 CYTOCHROME C, PUTATIVE",1.41
same,fold change vs vehicle control,protein LINJ.19.0300 RNA BINDING PROTEIN,1.2
same,fold change,"protein LINJ.20.0630 CYTIDINE TR[…], PUTATIVE",1.24
same,fold change relative to vehicle control,"protein LINJ.20.1390 COATOMER BETA SUBUNIT, PUTATIVE",1.31
same,fold change vs vehicle control,"protein LINJ.21.1310 40S RIBOSOMAL PROTEIN S23, PUTATIVE",1.12
same,fold change vs vehicle control,"protein LINJ.23.1680 HY[…], CONSERVED",1.11
same,fold change vs vehicle control,"protein LINJ.25.1170 […] OXIDASE VII, PUTATIVE",1.03
same,fold change relative to vehicle control,protein LINJ.25.1220 RIBOSOMAL PROTEIN S25,1.24
same,fold change vs vehicle control,"protein LINJ.26.1080 HY[…], CONSERVED",1.11
same,fold change vs vehicle control,"protein LINJ.27.1140 HY[…], CONSERVED",1.05
same,fold change vs vehicle control,"protein LINJ.28.1100 RIBOSOMAL PROTEIN S20, PUTATIVE",1.04
same,fold change relative to vehicle control,"protein LINJ.28.1940 REPLICATION FACTOR A, 51KDA SUBUNIT, PUTATIVE",1.28
same,fold change,"protein LINJ.31.2350 ADP-RI[…], PUTATIVE",1.11
same,fold change vs vehicle control,"protein LINJ.34.0670 […]-ATP-ASE SUBUNIT 11, PUTATIVE",1.17
same,fold change,"protein LINJ.35.0410 40S RIBOSOMAL PROTEIN S3A, PUTATIVE",1.2
same,fold change relative to vehicle control,"protein LINJ.35.0780 CBS DOMAIN PROTEIN, CONSERVED",0.96
same,fold change vs vehicle control,"protein LINJ.36.0510 HY[…], CONSERVED",1.08
same,fold change vs vehicle control,"protein LINJ.36.3940 40S RIBOSOMAL PROTEIN S27-1, PUTATIVE",0.95
same,fold change,protein LINJ.36.4180 HS1VU COMPLEX PROTEOLYTIC SUBUNIT-LIKE,0.97
same,fold change,protein LINJ.36.7350 […] OXIDASE SUBUNIT I,1.03
same,fold change,"protein LMJF.01.0520 LONG-CHAIN-FATTY-ACID-COA LIGASE, PUTATIVE",0.98
same,fold change vs vehicle control,"protein LMJF.02.0460 HY[…], CONSERVED",1.06
same,fold change vs vehicle control,"protein LMJF.03.0230 LONG CHAIN FATTY ACYL COA SYNTHETASE, PUTATIVE",1.18
same,fold change vs vehicle control,"protein LMJF.03.0630 HYPOTHETICAL PROTEIN, CONSERVED",1
same,fold change,"protein LMJF.05.0780 HY[…], CONSERVED",1.13
same,fold change,protein LMJF.06.0010 HISTONE H4,1.16
same,fold change,"protein LMJF.06.0140 PROTEASOME BETA 6 SUBUNIT, PUTATIVE",0.93
same,fold change,"protein LMJF.06.0650 […], PUTATIVE",1.08
same,fold change vs vehicle control,"protein LMJF.08.0510 RIBOSE-PHOSPHATE PYROPHOSPHOKINASE, PUTATIVE",1.01
same,fold change vs vehicle control,protein LMJF.08.0550 TRANSLATION INITIATION FACTOR-LIKE PROTEIN,1.1
same,fold change vs vehicle control,"protein LMJF.08.1100 HY[…], CONSERVED",1.08
same,fold change relative to vehicle control,"protein LMJF.09.1120 MITOCHONDRIAL RNA BINDING PROTEIN 2,MRP2, GBP25",1
same,fold change vs vehicle control,"protein LMJF.09.1260 HY[…], CONSERVED",1.11
same,fold change,protein LMJF.10.1010 NUCLEOSIDE PHOSPHORYLASE-LIKE PROTEIN,0.94
same,fold change,"protein LMJF.10.1240 HYPOTHETICAL PROTEIN, CONSERVED",0.79
same,fold change vs vehicle control,protein LMJF.11.0130 NGG1 I[…] 3-LIKE PROTEIN,1.06
same,fold change vs vehicle control,"protein LMJF.11.0240 […] 7 SUBUNIT, PUTATIVE",1.02
same,fold change,"protein LMJF.11.1050 PRETRA[…], ALPHA SUBUNIT, PUTATIVE",1.27
same,fold change vs vehicle control,"protein LMJF.11.1110 60S RIBOSOMAL PROTEIN L28, PUTATIVE",1.71
same,fold change vs vehicle control,"protein LMJF.12.0210 […] […]1L8 3, PUTATIVE",0.96
same,fold change vs vehicle control,"protein LMJF.12.0280 ORNITHINE DECARBOXYLASE, PUTATIVE",0.92
same,fold change vs vehicle control,"protein LMJF.13.0450 HYPOTHETICAL PROTEIN, CONSERVED",0.94
same,fold change vs vehicle control,"protein LMJF.13.0870 MIT[…] ALPHA SUBUNIT, PUTATIVE",1.12
same,fold change vs vehicle control,"protein LMJF.14.0130 INOSINE-GUANINE NUCLEOSIDE HYDROLASE, PUTATIVE",1
same,fold change,"protein LMJF.14.0310 PROTEASOME ALPHA 3 SUBUNIT, PUTATIVE",0.96
same,fold change,"protein LMJF.14.0650 FATTY ACID ELONGASE, PUTATIVE",1.09
same,fold change,"protein LMJF.14.0660 FATTY ACID ELONGASE, PUTATIVE",1.14
same,fold change,"protein LMJF.14.0705 FATTY ACID ELONGASE, PUTATIVE",0.94
same,fold change,"protein LMJF.14.0740 FATTY ACID ELONGASE, PUTATIVE",1.13
same,fold change relative to vehicle control,"protein LMJF.14.1120 KINESIN K39, PUTATIVE",1.12
same,fold change vs vehicle control,"protein LMJF.15.0230 LYSYL-TRNA SYNTHETASE, PUTATIVE",1.06
same,fold change vs vehicle control,"protein LMJF.15.0280 RIBONUCLEOPROTEIN P18, MIT[…], PUTATIVE",1.12
same,fold change,protein LMJF.15.1010 GLUTAMATE DEHYDROGENASE,1.12
same,fold change relative to vehicle control,"protein LMJF.16.0520 HYPOTHETICAL PROTEIN, CONSERVED",2.05
same,fold change,"protein LMJF.16.0540 ASPARTATE […], PUTATIVE",1.05
same,fold change vs vehicle control,protein LMJF.16.0950 SUCROSE-PHOSPHATE SYNTHASE-LIKE PROTEIN,1.27
same,fold change vs vehicle control,"protein LMJF.16.0960 HYPOTHETICAL PROTEIN, CONSERVED",0.64
same,fold change,protein LMJF.16.1180 COATOMER DELTA SUBUNIT-LIKE PROTEIN,1.05
same,fold change,"protein LMJF.17.0010 HYPOTHETICAL PROTEIN, CONSERVED",0.79
same,fold change vs vehicle control,"protein LMJF.18.0510 ACONITASE, PUTATIVE",1.1
same,fold change vs vehicle control,"protein LMJF.18.0890 RAB7 GTP BINDING PROTEIN, PUTATIVE",0.93
same,fold change,"protein LMJF.18.1130 RAS-RELATED PROTEIN RAB-5, PUTATIVE",0.97
same,fold change,"protein LMJF.19.1120 […]-ATP-ASE SUBUNIT, PUTATIVE",1.02
same,fold change vs vehicle control,"protein LMJF.19.1160 HY[…], CONSERVED",1.14
same,fold change vs vehicle control,protein LMJF.19.1530 PEPT[…]-LIKE PROTEIN,1.05
same,fold change,"protein LMJF.20.0100 PHOSPH[…] C, GLYCOSOMAL",1.08
same,fold change vs vehicle control,"protein LMJF.21.0720 HY[…], CONSERVED",1.29
same,fold change,"protein LMJF.21.1250 ADENYLATE KINASE, PUTATIVE",0.9
same,fold change,"protein LMJF.21.1555 HY[…], CONSERVED",1.14
same,fold change,"protein LMJF.21.1580 HY[…], UNKNOWN FUNCTION",1.22
same,fold change vs vehicle control,"protein LMJF.21.1700 […] 2 SUBUNIT, PUTATIVE",1.01
same,fold change,"protein LMJF.22.0230 AMINO ACID PERMEASE, PUTATIVE",1.51
same,fold change,"protein LMJF.22.0570 PROTEASOME REGULATORY ATPASE SUBUNIT 1, PUTATIVE",1.1
